Counter-ions that a name gives are not always drawn. Like-named read-outs stand apart in the source and are kept apart here.
Assays:
[1] = biological target: T1, human His-PIM1 [2-313] (Homo sapiens, UniProt P11309); test: PIM1 in-vitro mobility shift assay (Caliper LC3000, FL-Ahx-Bad phosphorylation); format: biochemical; details: 1.5 h, read-out: PIM1 % I at 0.3 uM
T1 construct: purified human His-PIM1 [2-313] enzyme; His (N); purchased University of Dundee, Scotland; host or cells: baculovirus system
T1 sequence (P11309 2-313): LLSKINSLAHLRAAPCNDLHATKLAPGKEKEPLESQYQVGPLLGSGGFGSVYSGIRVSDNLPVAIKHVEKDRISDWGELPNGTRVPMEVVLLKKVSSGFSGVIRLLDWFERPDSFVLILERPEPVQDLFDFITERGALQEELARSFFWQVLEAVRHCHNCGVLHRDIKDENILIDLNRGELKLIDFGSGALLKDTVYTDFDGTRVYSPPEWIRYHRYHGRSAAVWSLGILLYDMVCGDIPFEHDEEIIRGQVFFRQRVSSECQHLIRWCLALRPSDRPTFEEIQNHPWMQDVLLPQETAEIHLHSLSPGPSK
In short: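 Compound preincubated 20 min at 25 °C with 2.4 nM PIM1, 3.6 µM FL-Ahx-Bad peptide and 240 µM ATP (1.2× mix concentrations). Reaction started with 24 mM MgCl2 mix, run 90 min at 25 °C, EDTA-stopped. Phospho/unphospho peptide separated by microfluidic mobility shift; percent inhibition from ratiometric turnover.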

[2] = biological target: T2, human His-PIM2 [23-299] (Homo sapiens, UniProt Q9P1W9); test: PIM2 in-vitro mobility shift assay (Caliper LC3000, FL-Ahx-Bad phosphorylation); format: biochemical; details: 1.5 h; percent inhibition at 0.3 uM compound; read-out: PIM2 % I at 0.3 uM
T2 construct: purified human His-PIM2 [23-299] enzyme; His (N); host or cells: E. coli
T2 sequence (Q9P1W9 23-299): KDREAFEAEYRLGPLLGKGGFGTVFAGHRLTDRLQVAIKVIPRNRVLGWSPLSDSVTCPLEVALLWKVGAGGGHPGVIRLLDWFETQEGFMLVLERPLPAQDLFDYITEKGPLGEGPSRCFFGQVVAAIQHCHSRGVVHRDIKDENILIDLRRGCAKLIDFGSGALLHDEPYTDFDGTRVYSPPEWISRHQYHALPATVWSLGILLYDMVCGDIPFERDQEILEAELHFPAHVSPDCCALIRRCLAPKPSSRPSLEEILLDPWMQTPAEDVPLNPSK

[3] = percent inhibition at 0.3 uM compound

SMILES	inhibition at 0.3 µM [1, 3] [%]	inhibition at 0.3 µM [2] [%]	inhibition at 0.3 µM [1] [%]
N[C@@H]1CCCN(c2ccccc2/C=C2\SC(=O)NC2=O)C1 [Example 122W, (R,Z)-5-(2-(3-aminopiperidin-1-yl)benzylidene)thiazolidine-2,4-dione hydrochloride]	> 95	> 95	
N[C@H]1CCN(c2ccccc2/C=C2\SC(=O)NC2=O)C1 [Example 122X, (S,Z)-5-(2-(3-aminopyrrolidin-1-yl)benzylidene)thiazolidine-2,4-dione hydrochloride]	> 95	67.1	
N[C@@H]1CCCN(c2c(/C=C3\SC(=O)NC3=O)cccc2OCC(F)(F)F)C1 [Example 122Y, (R,Z)-5-(2-(3-aminopiperidin-1-yl)-3-(2,2,2-trifluoroethoxy)benzylidene)thiazolidine-2,4-dione hydrochloride]	> 95	> 95	
N[C@H]1CCN(c2c(/C=C3\SC(=O)NC3=O)cccc2OCC(F)(F)F)C1 [Example 122Z, (S,Z)-5-(2-(3-aminopyrrolidin-1-yl)-3-(2,2,2-trifluoroethoxy)benzylidene)thiazolidine-2,4-dione hydrochloride]	> 95	> 95	
NCCCN[C@H]1CCN(c2ccc(C(F)(F)F)cc2/C=C2\SC(=O)NC2=O)C1 [Example 123, (S,Z)-5-(2-(3-(3-aminopropylamino)pyrrolidin-1-yl)-5-(trifluoromethyl)benzylidene)thiazolidine-2,4-dione hydrochloride]	> 95	> 95	
COc1cccc(/C=C2\SC(=O)NC2=O)c1N1CC[C@H](NCCCN)C1 [Example 124]	> 95	> 95	
NCCCN[C@H]1CCN(c2c(Cl)cccc2/C=C2\SC(=O)NC2=O)C1 [Example 125]	> 95	> 95	
COc1cc(/C=C2\SC(=O)NC2=O)c(N2CCC(NCCCN)C2)cc1OC (centres unmarked) [Example 126]	> 95	> 95	
NCCCN1CCN(c2ccccc2/C=C2\SC(=O)NC2=O)CC1 [Example 127]	> 95	> 95	
COc1cc(/C=C2\SC(=O)NC2=O)c(N2CCC(NC(=O)CCN)C2)cc1OC (centres unmarked) [Example 128]	81.2	49	
NCCC(=O)N1CCN(c2ccccc2/C=C2\SC(=O)NC2=O)CC1 [Example 129A]	> 95	> 95	
NCCCN[C@@H]1CCCN(c2c(Cl)cccc2/C=C2\SC(=O)NC2=O)C1 [Example 129B]	> 95	> 95	
COc1ccc(OCCCN)c(C=C2SC(=O)NC2=O)c1 [Example 129C]	85	52.1	
CC(=O)N1CCN(c2ccccc2/C=C2\SC(=O)NC2=O)CC1 [Example 130, (5Z)-5-[2-(4-acetylpiperazin-1-yl)benzylidene]-1,3-thiazolidine-2,4-dione]		45.5	66.2
COc1cc(/C=C2\SC(=O)NC2=O)c(N2CCC(NC(C)=O)C2)cc1OC (centres unmarked) [Example 131A]	27.1	< 5	
CC(=O)Nc1ccc(N2CCC(N(C)C)C2)c(/C=C2\SC(=O)NC2=O)c1 (centres unmarked) [Example 131B]	< 5	< 5	
COc1cc(/C=C2\SC(=O)NC2=O)c(N2CCC(NCCO)C2)cc1OC (centres unmarked) [Example 132, (Z)-5-(2-(3-(2-hydroxyethylamino)pyrrolidin-1-yl)-4,5-dimethoxybenzylidene)thiazolidine-2,4-dione]	93	88.1	
O=C1NC(=O)/C(=C/c2cccc(Cl)c2N2CCC[C@@H](NCCO)C2)S1 [Example 133]	> 95	93.4	
O=C1NC(=O)/C(=C/c2cccc(Cl)c2N2CCC[C@@H](NCCCO)C2)S1 [Example 134]	> 95	85.2	

— patent US8901307B2, “Chemical compounds 251” (AstraZeneca AB, priority 2008, dated 2014)
